# Measured values: ChEMBL document CHEMBL1201862, “PubChem BioAssay data set” (2004)
# Activity calls are given as the source filed them.
# What was measured:
# [1] = target: Dual specificity protein phosphatase 3 (Homo sapiens, UniProt P51452); assay: VHR phosphatase inhibition, dose response, selectivity assay for STEP inhibitor project, biochemical (AID 602374); assay type: functional; conditions: read-out: IC50_Mean
# [2] = target: Tyrosine-protein phosphatase non-receptor type 11 (Homo sapiens, UniProt Q06124); assay: PTPN11 enzyme inhibitors – biochemical, selectivity assay for STEP inhibitor project, dose response (AID 602367); assay type: functional; conditions: read-out: IC50_Mean
# Tyrosine-protein phosphatase non-receptor type 11, sequence (Q06124 whole entry): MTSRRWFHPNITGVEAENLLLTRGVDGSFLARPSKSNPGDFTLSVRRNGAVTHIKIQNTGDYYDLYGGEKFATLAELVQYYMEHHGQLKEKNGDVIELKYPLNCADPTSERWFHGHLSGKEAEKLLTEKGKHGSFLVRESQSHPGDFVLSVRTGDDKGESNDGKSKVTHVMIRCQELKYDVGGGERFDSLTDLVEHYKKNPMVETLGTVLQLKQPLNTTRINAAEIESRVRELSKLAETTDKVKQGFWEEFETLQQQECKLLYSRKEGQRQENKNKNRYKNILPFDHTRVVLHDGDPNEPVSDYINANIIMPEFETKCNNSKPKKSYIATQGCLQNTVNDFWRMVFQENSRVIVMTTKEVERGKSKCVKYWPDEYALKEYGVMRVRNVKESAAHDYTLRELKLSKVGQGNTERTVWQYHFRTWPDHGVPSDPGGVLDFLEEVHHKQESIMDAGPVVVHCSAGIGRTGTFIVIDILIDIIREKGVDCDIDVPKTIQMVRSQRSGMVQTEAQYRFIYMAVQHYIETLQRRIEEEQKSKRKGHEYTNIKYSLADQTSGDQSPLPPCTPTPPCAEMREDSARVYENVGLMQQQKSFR
# [3] = target: Tyrosine-protein phosphatase non-receptor type 5 (Homo sapiens, UniProt P54829); assay: PTPN5 enzyme inhibition – biochemical, fluorescence intensity, uHTS hits, confirmation (AID 602372); assay type: functional; conditions: read-out: IC50_Mean
# Tyrosine-protein phosphatase non-receptor type 5, sequence (P54829 whole entry): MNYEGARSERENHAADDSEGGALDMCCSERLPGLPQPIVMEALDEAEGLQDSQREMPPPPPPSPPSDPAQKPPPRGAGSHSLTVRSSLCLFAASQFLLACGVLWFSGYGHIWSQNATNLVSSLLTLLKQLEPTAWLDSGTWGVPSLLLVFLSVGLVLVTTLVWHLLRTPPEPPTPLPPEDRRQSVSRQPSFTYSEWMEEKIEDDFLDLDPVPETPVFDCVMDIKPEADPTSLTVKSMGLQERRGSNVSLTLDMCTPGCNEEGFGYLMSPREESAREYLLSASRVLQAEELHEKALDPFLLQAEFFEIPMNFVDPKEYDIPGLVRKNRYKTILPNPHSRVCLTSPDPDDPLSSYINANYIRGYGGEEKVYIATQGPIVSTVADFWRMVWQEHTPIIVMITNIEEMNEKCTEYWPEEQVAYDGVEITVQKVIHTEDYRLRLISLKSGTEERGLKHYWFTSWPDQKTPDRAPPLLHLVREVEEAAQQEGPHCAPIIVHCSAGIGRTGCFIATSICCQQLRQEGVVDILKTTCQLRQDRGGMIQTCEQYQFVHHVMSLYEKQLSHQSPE
# [4] = target: T1, Histone-lysine N-methyltransferase NSD2 (Homo sapiens, UniProt O96028); assay type: biochemical
# T1 sequence (O96028 whole entry): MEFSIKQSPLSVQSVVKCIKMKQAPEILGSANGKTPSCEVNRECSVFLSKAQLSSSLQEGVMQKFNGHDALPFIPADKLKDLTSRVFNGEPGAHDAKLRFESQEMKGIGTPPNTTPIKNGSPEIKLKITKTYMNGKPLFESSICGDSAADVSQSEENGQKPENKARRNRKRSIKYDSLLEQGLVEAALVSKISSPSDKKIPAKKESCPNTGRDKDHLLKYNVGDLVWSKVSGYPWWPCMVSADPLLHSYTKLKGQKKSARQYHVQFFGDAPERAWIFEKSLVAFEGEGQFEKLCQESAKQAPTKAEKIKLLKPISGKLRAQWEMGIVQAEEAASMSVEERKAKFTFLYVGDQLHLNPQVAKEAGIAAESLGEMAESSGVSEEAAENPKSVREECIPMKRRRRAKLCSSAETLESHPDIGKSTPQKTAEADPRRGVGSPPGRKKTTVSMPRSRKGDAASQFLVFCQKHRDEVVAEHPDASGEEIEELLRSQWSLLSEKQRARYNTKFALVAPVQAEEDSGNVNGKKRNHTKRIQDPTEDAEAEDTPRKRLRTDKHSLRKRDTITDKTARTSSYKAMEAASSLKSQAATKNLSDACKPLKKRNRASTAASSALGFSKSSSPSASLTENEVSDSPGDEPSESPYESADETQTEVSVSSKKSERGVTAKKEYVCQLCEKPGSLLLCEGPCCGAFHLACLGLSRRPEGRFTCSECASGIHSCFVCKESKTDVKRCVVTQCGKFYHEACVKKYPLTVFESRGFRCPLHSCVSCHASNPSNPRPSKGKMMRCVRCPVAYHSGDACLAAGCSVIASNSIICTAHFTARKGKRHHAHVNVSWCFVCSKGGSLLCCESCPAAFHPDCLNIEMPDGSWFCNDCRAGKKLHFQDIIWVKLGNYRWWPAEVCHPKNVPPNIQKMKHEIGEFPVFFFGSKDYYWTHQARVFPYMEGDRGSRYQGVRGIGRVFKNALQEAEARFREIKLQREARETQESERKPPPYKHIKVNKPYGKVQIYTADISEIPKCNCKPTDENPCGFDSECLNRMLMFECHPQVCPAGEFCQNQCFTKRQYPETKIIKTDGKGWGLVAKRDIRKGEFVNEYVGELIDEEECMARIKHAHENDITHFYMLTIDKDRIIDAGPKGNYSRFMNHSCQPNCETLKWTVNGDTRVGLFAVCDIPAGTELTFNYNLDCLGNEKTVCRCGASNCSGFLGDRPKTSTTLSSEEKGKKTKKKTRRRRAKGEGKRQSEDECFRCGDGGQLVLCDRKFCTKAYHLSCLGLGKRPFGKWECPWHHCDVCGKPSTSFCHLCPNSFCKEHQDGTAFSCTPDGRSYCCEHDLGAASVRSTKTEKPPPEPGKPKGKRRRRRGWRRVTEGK
# [5] = alpha-synuclein stem-loop luciferase translation blockers – H4 neuroglioma cells, luminescence, confirmation (AID 1988); assay type: functional, cell-based
# [6] = system: INS1; assay: INS-1E survival protection against cytokine death – cell-based, luminescence, retest, dose response (AID 449756); assay type: functional; conditions: Rattus norvegicus;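 also: cell death triggered by IL-1 beta plus TNF-alpha plus IFN-gamma mixture; protective hits raise ATP signal compared with cytokine alone wells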
# [7] = Luminescence Cell-Based Dose Response HTS to Identify Inhibitors of 5'UTR Stem-Loop Driven Prion Protein mRNA Translation in H4 Neuroglioblastoma Cells. [Related pubchem assays: 1827 (Project Summary), 1813 (Primary HTS)]; assay type: functional
# [8] = target: Mitochondrial peptide methionine sulfoxide reductase (Bos taurus, UniProt P54149); assay: Absorbance-based biochemical high throughput dose response assay for activators of Methionine sulfoxide reductase A (MsrA).; assay type: functional
# Mitochondrial peptide methionine sulfoxide reductase, sequence (P54149 whole entry): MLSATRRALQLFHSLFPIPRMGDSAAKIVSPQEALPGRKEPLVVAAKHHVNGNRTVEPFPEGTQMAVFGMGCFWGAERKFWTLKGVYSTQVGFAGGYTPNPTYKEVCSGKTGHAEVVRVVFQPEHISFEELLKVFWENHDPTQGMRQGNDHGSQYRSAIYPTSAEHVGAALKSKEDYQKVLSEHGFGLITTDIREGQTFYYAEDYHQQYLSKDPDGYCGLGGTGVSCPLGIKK
# [9] = target: T2, Replicative DNA helicase DnaB (Mycobacterium tuberculosis, UniProt P9WMR3); assay: DnaB intein splicing inhibitors, dose response, biochemical, cell-free fluorescence (AID 449749); assay type: functional
# T2 sequence (P9WMR3 whole entry): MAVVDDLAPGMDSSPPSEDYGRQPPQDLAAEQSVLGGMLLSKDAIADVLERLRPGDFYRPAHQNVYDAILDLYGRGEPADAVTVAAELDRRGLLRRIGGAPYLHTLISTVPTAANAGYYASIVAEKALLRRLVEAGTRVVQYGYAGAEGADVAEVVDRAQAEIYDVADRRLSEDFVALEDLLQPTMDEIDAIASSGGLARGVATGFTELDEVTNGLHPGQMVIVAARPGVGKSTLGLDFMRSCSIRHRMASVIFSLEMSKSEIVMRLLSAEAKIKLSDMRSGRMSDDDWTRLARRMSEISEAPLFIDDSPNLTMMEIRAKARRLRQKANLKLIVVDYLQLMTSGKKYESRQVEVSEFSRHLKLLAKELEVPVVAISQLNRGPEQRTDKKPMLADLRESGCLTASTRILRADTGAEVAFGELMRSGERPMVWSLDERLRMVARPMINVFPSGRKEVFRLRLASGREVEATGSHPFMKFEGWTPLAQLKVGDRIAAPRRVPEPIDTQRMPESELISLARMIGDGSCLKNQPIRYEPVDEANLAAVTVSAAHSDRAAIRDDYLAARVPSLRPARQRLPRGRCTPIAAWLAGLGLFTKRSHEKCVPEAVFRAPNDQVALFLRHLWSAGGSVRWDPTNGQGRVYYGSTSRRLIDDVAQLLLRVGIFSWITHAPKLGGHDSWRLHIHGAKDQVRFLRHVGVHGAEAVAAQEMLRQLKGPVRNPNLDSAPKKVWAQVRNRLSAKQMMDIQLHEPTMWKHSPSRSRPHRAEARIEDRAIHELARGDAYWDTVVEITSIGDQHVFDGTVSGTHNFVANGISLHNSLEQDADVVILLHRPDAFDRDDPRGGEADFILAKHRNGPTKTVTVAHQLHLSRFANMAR
# [10] = target: T3, Protein RecA (Mycobacterium tuberculosis, UniProt P9WHJ3); assay: Fluorescence Cell-Free Homogeneous Dose Retest to Identify Inhibitors of RecA-Intein Splicing Activity. [Related pubchem assays (depositor defined):AID2097, AID2223, AID489010, AID492950]; assay type: functional
# T3 sequence (P9WHJ3 whole entry): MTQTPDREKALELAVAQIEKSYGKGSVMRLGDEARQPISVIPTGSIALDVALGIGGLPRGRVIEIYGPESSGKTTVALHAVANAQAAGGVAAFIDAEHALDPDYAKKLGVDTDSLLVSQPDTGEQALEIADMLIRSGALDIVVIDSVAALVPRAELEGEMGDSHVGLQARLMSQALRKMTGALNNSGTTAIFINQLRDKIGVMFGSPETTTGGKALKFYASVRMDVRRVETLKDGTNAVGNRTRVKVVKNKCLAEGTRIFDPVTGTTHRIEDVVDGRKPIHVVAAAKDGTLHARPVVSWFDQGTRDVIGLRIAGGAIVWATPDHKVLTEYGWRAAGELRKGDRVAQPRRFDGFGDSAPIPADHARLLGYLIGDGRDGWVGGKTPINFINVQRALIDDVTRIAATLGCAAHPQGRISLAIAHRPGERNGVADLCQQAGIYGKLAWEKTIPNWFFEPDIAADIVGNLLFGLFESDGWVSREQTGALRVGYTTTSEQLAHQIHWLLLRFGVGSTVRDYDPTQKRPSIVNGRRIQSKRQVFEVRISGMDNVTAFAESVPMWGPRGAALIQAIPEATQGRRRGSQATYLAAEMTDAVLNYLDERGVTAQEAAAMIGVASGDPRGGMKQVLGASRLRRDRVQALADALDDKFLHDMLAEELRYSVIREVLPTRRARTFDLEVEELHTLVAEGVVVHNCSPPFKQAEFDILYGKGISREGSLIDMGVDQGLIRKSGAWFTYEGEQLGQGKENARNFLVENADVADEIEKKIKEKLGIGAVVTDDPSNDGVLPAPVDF
# [11] = luciferase reporter signal suppression in cells – H4 neuroglioma cells, luminescence, dose response (AID 1990); assay type: functional, cell-based
# [12] = target: Melanocortin receptor 4 (Homo sapiens, UniProt P32245); assay type: functional, cell-based;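 also: Cell-based assay with luminescence read-out, confirmatory dose-response testing for agonist activity of biased ligands at MC4R; human U2OS cells with tagged receptor and beta-arrestin; potency of agonists that increase receptor coupling to beta-arrestin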
# Melanocortin receptor 4, sequence (P32245 whole entry): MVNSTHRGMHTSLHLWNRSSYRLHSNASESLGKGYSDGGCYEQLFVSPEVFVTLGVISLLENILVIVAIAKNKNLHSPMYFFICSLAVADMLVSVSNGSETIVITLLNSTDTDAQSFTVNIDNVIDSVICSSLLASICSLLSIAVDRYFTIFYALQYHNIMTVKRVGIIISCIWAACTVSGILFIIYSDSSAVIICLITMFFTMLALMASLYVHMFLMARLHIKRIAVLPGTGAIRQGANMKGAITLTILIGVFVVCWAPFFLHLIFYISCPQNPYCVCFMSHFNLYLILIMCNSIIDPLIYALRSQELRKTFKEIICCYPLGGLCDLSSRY
# [13] = target: T4, ATP-dependent translocase ABCB1 (Homo sapiens, UniProt P08183); assay: P-gp JC-1 efflux blockade concentration-response – Jurkat-DNR cells, flow cytometry, set 2, dose response (AID 504569); assay type: functional; conditions: read-out: EC50_MICROM_;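 also: potency of pump inhibitors that raise cellular JC-1 green fluorescence up to the nicardipine level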
# T4 sequence (P08183 whole entry): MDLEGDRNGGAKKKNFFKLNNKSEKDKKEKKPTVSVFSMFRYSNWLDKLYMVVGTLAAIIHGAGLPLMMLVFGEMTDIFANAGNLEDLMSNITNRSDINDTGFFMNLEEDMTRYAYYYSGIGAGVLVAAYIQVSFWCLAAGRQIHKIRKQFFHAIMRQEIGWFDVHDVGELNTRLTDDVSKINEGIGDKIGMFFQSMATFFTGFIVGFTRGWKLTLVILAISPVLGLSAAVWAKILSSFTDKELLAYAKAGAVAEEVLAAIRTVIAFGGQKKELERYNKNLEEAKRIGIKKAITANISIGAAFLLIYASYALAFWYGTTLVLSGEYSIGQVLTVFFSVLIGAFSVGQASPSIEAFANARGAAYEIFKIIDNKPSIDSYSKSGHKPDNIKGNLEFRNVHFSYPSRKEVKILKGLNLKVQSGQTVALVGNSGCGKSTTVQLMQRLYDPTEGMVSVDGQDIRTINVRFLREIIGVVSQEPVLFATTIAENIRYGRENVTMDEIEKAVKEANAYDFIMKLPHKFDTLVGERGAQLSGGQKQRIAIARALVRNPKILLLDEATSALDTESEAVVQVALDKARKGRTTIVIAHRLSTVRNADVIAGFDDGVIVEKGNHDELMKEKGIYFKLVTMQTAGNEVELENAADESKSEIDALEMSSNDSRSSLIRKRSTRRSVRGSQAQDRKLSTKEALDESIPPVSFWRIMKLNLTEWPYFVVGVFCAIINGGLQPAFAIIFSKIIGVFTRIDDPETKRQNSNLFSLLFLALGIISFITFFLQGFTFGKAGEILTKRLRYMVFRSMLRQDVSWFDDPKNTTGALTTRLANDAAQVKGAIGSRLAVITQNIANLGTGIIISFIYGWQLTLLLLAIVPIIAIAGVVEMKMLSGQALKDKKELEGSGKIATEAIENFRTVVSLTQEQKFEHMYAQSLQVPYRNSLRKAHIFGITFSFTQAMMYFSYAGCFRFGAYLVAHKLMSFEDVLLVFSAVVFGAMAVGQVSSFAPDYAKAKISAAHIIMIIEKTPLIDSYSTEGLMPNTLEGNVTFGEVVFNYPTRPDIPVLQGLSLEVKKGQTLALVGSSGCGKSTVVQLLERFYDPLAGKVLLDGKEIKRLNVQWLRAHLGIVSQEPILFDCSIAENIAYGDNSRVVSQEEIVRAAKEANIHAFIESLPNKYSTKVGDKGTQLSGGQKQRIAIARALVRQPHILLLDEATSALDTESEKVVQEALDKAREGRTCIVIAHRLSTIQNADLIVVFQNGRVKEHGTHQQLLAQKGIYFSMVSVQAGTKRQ
# [14] = target: T4, ATP-dependent translocase ABCB1; assay: inhibition of BCRP-mediated JC-1 efflux – Ig-MXP3 cells, flow cytometry, set 2, dose response (AID 504566); assay type: functional; conditions: read-out: EC50_MICROM_;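 also: flow cytometry median green fluorescence of retained JC-1 dye; potency of efflux pump inhibition measured as rising substrate retention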
# [15] = viability of uninfected HEp-2 cells – cell-based, HTS, cytotoxicity control for RSV inhibitor project, dose response (AID 2410); assay type: functional; conditions: human respiratory syncytial virus
# Dual specificity protein phosphatase 3, sequence (P51452 whole entry): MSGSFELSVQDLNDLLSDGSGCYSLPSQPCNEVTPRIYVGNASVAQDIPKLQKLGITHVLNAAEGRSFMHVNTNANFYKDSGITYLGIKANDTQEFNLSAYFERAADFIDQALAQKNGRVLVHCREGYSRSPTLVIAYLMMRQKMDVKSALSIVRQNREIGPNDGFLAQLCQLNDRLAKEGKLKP
smiles,measurement,setting,value
Sc1nnc(-c2cccnc2)n1/N=C/c1ccc(Br)s1,IC50,[1],4.27 µM (active)
same,IC50,[2],4.66 µM (active)
same,IC50,[3],> 80 µM (inactive)
NC1=C(Br)C(=O)c2ccccc2C1=O,AC50,[4],10 µM (active)
same,EC50,[5],> 120 µM (not active)
same,AC50,[6],6.52 µM (active)
same,EC50,[7],> 60 µM (not active)
same,EC50,[8],61.9 µM (inactive)
same,AC50,[9],2.95 µM (active)
same,EC50,[10],2.99 µM (active)
same,EC50,[11],> 60 µM (not active)
Cc1cc(N2CCN(C(=O)c3ccco3)CC2)n2nc(-c3cccc(Cl)c3)cc2n1,EC50,[12],> 89.2 µM (inactive)
same,EC50,[13],5.05 µM (inactive)
same,EC50,[14],2.24 µM (active)
same,CC50,[15],34.7 µM (active)
